The nature of this assay: Kinetic gas hydrate inhibition test in stirred steel autoclave. The conditions noted are these: 5000 ppm based on the water phase; for Tind (time from attainment of 4° C. until the first gas absorption): distilled water and gas 20:80, 50 bar natural gas; for Tagg (time until the torque rises): distilled water and gas 20:80, 50 bar natural gas, 4° C. As to the method:
To investigate the inhibiting action of the polyesters, a stirred steel autoclave with temperature control, pressure and torque sensor with capacity 450 ml was used. For investigations of kinetic inhibition, the autoclave was filled with distilled water and gas in a volume ratio of 20:80; for investigations of agglomerate inhibition, condensate was additionally added. Finally, 50 bar of natural gas were injected. […] At first, a pressure decrease corresponding to the thermal compression of the gas is observed. When the formation of gas hydrate nuclei occurs during the cooling time, the pressure measured falls, and a rise in the torque measured and a slight increase, in the temperature are observed. Without inhibitors, further growth and increasing agglomeration of the hydrate nuclei lead rapidly to a further rise in the torque. When the mixture is heated, the gas hydrates decompose, so that the starting state of the experimental series is attained. The measure used for the inhibiting action of the polymer is the time from the attainment of the minimum temperature of 4° C. until the first gas absorption (Tind) or the time until the torque rises (Tagg). Long induction times or agglomeration times indicate an effect as a kinetic inhibitor. The torque measured in the autoclave serves, in contrast, as a parameter for the agglomeration of the hydrate crystals. […] Composition of the natural gas used: methane 84.8%, ethane 9.2%, propane 2.6%, butane 0.9%, carbon dioxide 1.6%, nitrogen 0.9%. The comparative substance used was a commercially available gas hydrate inhibitor based on polyvinylpyrrolidone. The dosage in all tests was 5000 ppm based on the water phase.

The results in this text go back to patent US9452981B2, “Pyroglutamic acid esters with improved biodegradability” (Clariant Produkte (Deutschland) GmbH, priority 2005, dated 2016).

On to `O=C1CC[C@@H](C(=O)OCCOCCOCCOC(=O)[C@@H]2CCC(=O)N2)N1` [Example 2, triethylene glycol di(pyroglutamate)], for which the “Tind (time from attainment of 4° C. until the first gas absorption)” value is 7.3 h and the “Tagg (time until the torque rises)” value came out at 7.4 h.
For `O=C1CC[C@@H](C(=O)OCCOCCOCCOC(=O)[C@@H]2CCC(=O)N2)N1` [Example 1, triethylene glycol di(pyroglutamate)], the “Tind (time from attainment of 4° C. until the first gas absorption)” value worked out at 6.9 h and the “Tagg (time until the torque rises)” value is 7.2 h.
